In ChEMBL document CHEMBL1139929, “Penicillin-bound polyacrylate nanoparticles: restoring the activity of beta-lactam antibiotics against MRSA” (2007):
In brackets after ≈: the same amount, converted by molar mass.

Assays:
Staphylococcus aureus [1] = experiment: Antibacterial activity against Staphylococcus aureus ATCC 25923 after 24 hrs by broth dilution assay; assay type: functional; settings: ATCC 25923, 24 h
Staphylococcus aureus [2] = experiment: Antibacterial activity against methicillin-resistant Staphylococcus aureus ATCC 43300 after 24 hrs by broth dilution assay; assay type: functional; settings: ATCC 43300, 24 h

CC1(C)S[C@@H]2[C@H](NC(=O)Cc3ccccc3)C(=O)N2[C@H]1C(=O)O [PENICILLIN G] gave an MIC (Staphylococcus aureus [1]) of 0.012 µg/mL (≈ 0.0359 µM) and an MIC (Staphylococcus aureus [2]) of 16 µg/mL (≈ 47.8 µM).
